Experimental data published in US20050113286A1, “Methods for treating congestive heart failure” (priority 2002, published 2005).
Entries after “also recorded” stand apart in the source; their conditions may differ.

How the values were obtained:
[1] = tested on: acute decompensated heart failure; conditions: compared with milrinone; cited from earlier work
[2] = tested on: patients with chronic decompensated HF; test: FUSION I: left ventricular ejection fraction by echocardiography; type: in vivo, human
From the text: Surrogate measures with mechanistic implications included measures of serum aldosterone, serum endothelin-1, and serial measurements of ventricular function using ejection fractions derived from echocardiography. Pre-infusion aldosterone and endothelin-1 concentrations were collected and analyzed at a core lab (The Mayo Clinic, Rochester, Minn.) at weeks 1, 4, 8, and 12; post-infusion concentrations were collected at weeks 1 and 12. Left ventricular ejection fractions were serially measured and read at a core lab (Midwest Heart Foundation Echocardiographic Core Laboratory, Lombard, Ill.).

[3] = tested on: patients with chronic decompensated HF; test: FUSION I: quality of life, Minnesota Living With HF questionnaire; type: in vivo, human; conditions: weeks 4, 8, and 12
Experimental: (§1) At weeks 4, 8, and 12, the change from baseline global clinical status was assessed by both the patient and the investigator; assessments were rated on a 7-point ordinal scale from markedly worse (−3) to markedly better (+3).^1l,12 In addition, patients' assessment of quality of life was measured at baseline and at weeks 4, 8, and 12 using the Minnesota Living With HF questionnaire. (Rector TS, Kubo SH, Cohn J N. Patients' self-assessment of their congestive heart failure. Part 2: Content, reliability and validity of a new measure, The Minnesota Living with Heart Failure Questionnaire. Heart Failure 1987;October/November:198-209.)

[4] = tested on: patients with chronic decompensated HF; test: FUSION I: global clinical status, 7-point ordinal scale; type: in vivo, human; conditions: for Investigators' assessment: Reported improvement from baseline (%): moderately or markedly improved; for Investigators' assessment: Mean change from baseline / Patients' assessment: Mean change from baseline: scale −3 to +3
Experimental: as §1

[5] = tested on: patients with chronic decompensated HF; test: FUSION I: safety and tolerability of serial outpatient nesiritide infusions; type: in vivo; conditions: for Patients discontinued from the study before week 12 because of an AE, number / Patients discontinued from the study prematurely due to an AE, %: primarily worsening HF
Experimental: The objective of the FUSION I study was to assess the safety and tolerability of nesiritide when administered in an outpatient setting as serial parenteral infusions to patients with chronic decompensated HF who were at high risk for hospitalization and were receiving established usual therapy for HF. The study compared usual care with usual care plus nesiritide given as 1 of 2 dosing strategies. All patients were evaluated weekly and treated in established HF clinics.
In this multicenter, open-label, pilot study, patients were randomly assigned to 1 of 3 treatment groups in a 1:1:1 ratio: (1) usual care, as determined by the investigating physician; (2) usual care plus nesiritide 0.005 μg/kg/min given for 4 to 6 hours, preceded by a 1.0-μg/kg bolus; or (3) usual care plus nesiritide 0.01 μg/kg/min given for 4 to 6 hours, preceded by a 2.0-μg/kg bolus (FIG. 1). The study treatment period was 12 weeks with an additional 4 weeks of follow-up. Nesiritide (Natrecor®) was supplied by Scios Inc., Fremont, Calif. Informed consent was obtained from each patient prior to enrollment, and the Ethics Committee of each institution prospectively approved the study.
All patients, regardless of treatment assignment, were required to have weekly clinic visits in an established HF clinic. If the patient had been randomized to nesiritide, half of the protocol-specified nesiritide dose was administered on the first weekly visit to assess safety. The 0.005 μg/kg/min nesiritide group received a 0.5 μg/kg bolus followed by a 0.0025 μg/kg/min infusion; and the 0.01 μg/kg/min nesiritide group received a 1.0 μg/kg bolus followed by a 0.005 μg/kg/min infusion. At subsequent visits (starting with week 2), the dose was increased to the protocol-specified dose for that group.
Nesiritide was administered as an IV bolus immediately followed by a fixed-rate infusion for 4 to 6 hours, based on the investigators' discretion, for 12 consecutive weeks. Before each infusion, the investigator assessed the patient's hydration status and HF symptoms as per the protocol. The investigator could choose the infusion frequency from once every other week to twice weekly based on hydration status and HF symptoms.
The primary goal of this open-label study was to assess the safety and tolerability of different nesiritide doses administered as serial outpatient infusions. Safety and tolerability were measured through investigator reporting of adverse events (AEs), serious AEs, discontinuations of study infusions, laboratory assessments, and vital signs. An AE was defined as any new onset or worsening of any medical condition since study entry. A serious AE were those AEs, which lead to death, hospitalization, or prolonged hospitalization. The effect of nesiritide infusions on renal function was also monitored as a safety variable, with renal AEs defined as increased blood urea nitrogen (BUN) or serum creatinine levels (determined by investigator's discretion), onset of oliguria, or occurrence of acute renal failure. Clinical events were followed to further evaluate safety and tolerability.

[6] = week 4, both nesiritide groups, count in cell 125
[7] = week 12, 0.01 μg/kg/min, count in cell 51
[8] = 0.005 μg/kg/min, n = 72, 819 infusions
[9] = 0.01 μg/kg/min, n = 69, 826 infusions
[10] = all nesiritide patients, n = 141
[11] = all nesiritide patients, n = 141, 1645 infusions

Nesiritide: a recombinant form of human B-type natriuretic peptide (BNP)
Length of stay [1]: shorter length of stay | Readmissions [1]: fewer readmissions | Mean change in ejection fraction from baseline to week 12 ([2]; 0.005-μg/kg/min): +4.0±3.3% | Mean change in ejection fraction from baseline to week 12 ([2]; 0.01-μg/kg/min, p=0.03 compared with the usual-care group): +5.3±5.0% | Quality of life, between treatment groups [3]: no significant differences | Quality of life compared with baseline ([3]; all treatment groups): significant improvement | Global clinical status, investigators' assessments, compared with usual-care group ([4]; 0.01-μg/kg/min group, p≦0.004 at all time points): significant improvement | Global clinical status, patients' assessments, among treatment groups ([4]; all treatment groups): no significant differences | Patients' assessment: Reported improvement from baseline (%) ([4]; week 4, 0.005 μg/kg/min, count in cell 62): 62 (50%) | Investigators' assessment: Reported improvement from baseline (%) ([4]; week 4, 0.005 μg/kg/min, count in cell 63): 63 (29%) | Investigators' assessment: Mean change from baseline ([4]; week 4, 0.005 μg/kg/min): 0.9 ± 1.28 | Patients' assessment: Mean change from baseline ([4]; week 4, 0.005 μg/kg/min): 1.3 ± 1.33 | Patients' assessment: Reported improvement from baseline (%) ([4]; week 4, 0.01 μg/kg/min, count in cell 63): 63 (51%) | Investigators' assessment: Reported improvement from baseline (%) ([4]; week 4, 0.01 μg/kg/min, count in cell 62): 62 (47%) | Patients' assessment: Mean change from baseline ([4]; week 4, 0.01 μg/kg/min): 1.4 ± 1.20 | Investigators' assessment: Mean change from baseline ([4]; week 4, 0.01 μg/kg/min, p < 0.05 compared with usual care): 1.1 ± 1.28 | Patients' assessment: Reported improvement from baseline (%) [4, 6]: 125 (50%) | Investigators' assessment: Reported improvement from baseline (%) [4, 6]: 125 (38%) | Patients' assessment: Mean change from baseline ([4]; week 4, both nesiritide groups): 1.4 ± 1.26 | Investigators' assessment: Mean change from baseline ([4]; week 4, both nesiritide groups, p < 0.05 compared with usual care): 1.0 ± 1.28 | Patients' assessment: Reported improvement from baseline (%) ([4]; week 8, 0.005 μg/kg/min, count in cell 53): 53 (72%) | Investigators' assessment: Reported improvement from baseline (%) ([4]; week 8, 0.005 μg/kg/min, count in cell 50): 50 (54%) | Patients' assessment: Mean change from baseline ([4]; week 8, 0.005 μg/kg/min): 1.7 ± 1.26 | Investigators' assessment: Mean change from baseline ([4]; week 8, 0.005 μg/kg/min, p < 0.05 compared with usual care): 1.3 ± 1.35 | Patients' assessment: Reported improvement from baseline (%) ([4]; week 8, 0.01 μg/kg/min, count in cell 56): 56 (68%) | Investigators' assessment: Reported improvement from baseline (%) ([4]; week 8, 0.01 μg/kg/min, count in cell 54): 54 (59%) | Patients' assessment: Mean change from baseline ([4]; week 8, 0.01 μg/kg/min): 1.8 ± 1.26 | Investigators' assessment: Mean change from baseline ([4]; week 8, 0.01 μg/kg/min, p < 0.05 compared with usual care): 1.6 ± 1.19 | Patients' assessment: Reported improvement from baseline (%) ([4]; week 8, both nesiritide groups, count in cell 109): 109 (70%) | Investigators' assessment: Reported improvement from baseline (%) ([4]; week 8, both nesiritide groups, count in cell 104): 104 (57%) | Patients' assessment: Mean change from baseline ([4]; week 8, both nesiritide groups): 1.8 ± 1.25 | Investigators' assessment: Mean change from baseline ([4]; week 8, both nesiritide groups, p < 0.05 compared with usual care): 1.4 ± 1.27 | Patients' assessment: Reported improvement from baseline (%) ([4]; week 12, 0.005 μg/kg/min, count in cell 54): 54 (76%) | Investigators' assessment: Reported improvement from baseline (%) ([4]; week 12, 0.005 μg/kg/min, count in cell 51): 51 (55%) | Patients' assessment: Mean change from baseline ([4]; week 12, 0.005 μg/kg/min): 1.9 ± 1.39 | Investigators' assessment: Mean change from baseline ([4]; week 12, 0.005 μg/kg/min, p < 0.05 compared with usual care): 1.4 ± 1.31 | Patients' assessment: Reported improvement from baseline (%) [4, 7]: 51 (55%) | Investigators' assessment: Reported improvement from baseline (%) [4, 7]: 51 (59%) | Patients' assessment: Mean change from baseline ([4]; week 12, 0.01 μg/kg/min): 1.7 ± 1.09 | Investigators' assessment: Mean change from baseline ([4]; week 12, 0.01 μg/kg/min, p < 0.05 compared with usual care): 1.7 ± 1.16 | Patients' assessment: Reported improvement from baseline (%) ([4]; week 12, both nesiritide groups, count in cell 105): 105 (66%) | Investigators' assessment: Reported improvement from baseline (%) ([4]; week 12, both nesiritide groups, count in cell 102): 102 (57%) | Patients' assessment: Mean change from baseline ([4]; week 12, both nesiritide groups): 1.8 ± 1.25 | Investigators' assessment: Mean change from baseline ([4]; week 12, both nesiritide groups, p < 0.05 compared with usual care): 1.5 ± 1.24 | Patients with infusion stopped due to adverse event, % ([5]; 0.005 μg/kg/min, n = 72): 6% | Patients with infusion stopped due to adverse event, number ([5]; 0.005 μg/kg/min, n = 72): 4 | Infusion completed, % of infusions [5, 8]: 99% | Infusion completed, number of infusions [5, 8]: 814 | Infusions stopped due to adverse event, % [5, 8]: < 1% | Infusions stopped due to adverse event, number [5, 8]: 4 | Patients discontinued from the study before week 12 because of an AE, number ([5]; 0.005 μg/kg/min): 7 | Patients discontinued from the study prematurely due to an AE, % ([5]; 0.005 μg/kg/min): 10% | Patients with infusion stopped due to adverse event, % ([5]; 0.01 μg/kg/min, n = 69): 7% | Patients with infusion stopped due to adverse event, number ([5]; 0.01 μg/kg/min, n = 69): 5 | Infusion completed, % of infusions [5, 9]: 99% | Infusion completed, number of infusions [5, 9]: 814 | Infusions stopped due to adverse event, % [5, 9]: < 1% | Infusions stopped due to adverse event, number [5, 9]: 7 | Patients discontinued from the study before week 12 because of an AE, number ([5]; 0.01 μg/kg/min): 2 | Patients discontinued from the study prematurely due to an AE, % ([5]; 0.01 μg/kg/min): 3% | Deaths considered related to study medication ([5]; 12-week treatment period): in no case | Adverse cardiovascular or renal events compared with usual care ([5]; RAS≧4 cohort): not associated with an increase; also recorded: tended to have a lower incidence | Patients with infusion stopped due to adverse event, % [5, 10]: 6% | Patients with infusion stopped due to adverse event, number [5, 10]: 9 | Infusion completed, % of infusions [5, 11]: 99% | Infusion completed, number of infusions [5, 11]: 1628 | Infusions stopped due to adverse event, % [5, 11]: < 1% | Infusions stopped due to adverse event, number [5, 11]: 11 | Infusion completed, number of infusions ([5]; all nesiritide patients, n = 141, 1645 infusions, listed as nesiritide): 1,628 | Safety and tolerability of serial outpatient infusions ([5]; both doses, 12 weeks, outpatient setting): similarly well tolerated; also recorded: safe and well tolerated | Frequency of observed AEs compared with usual-care group ([5]; either nesiritide group, through 12 weeks, all patients): no increase | Cardiovascular AEs, including symptomatic hypotension, and renal AEs compared to usual-care group ([5]; nesiritide groups, all patients): not increased
